Measurements as given in patent US9995734B2, “Human T cell line assay for evaluating the immunologic identity of glatiramer acetate preparations” (Mylan Inc., priority 2013, dated 2018).
Values joined by “and” are separate entries in the source; they are usually repeats but may differ in a detail not shown here. Equal values may be shown once.

Legend:
[1] = tested on: Donor 3 GMA T-Cell Lines; assay: ATP proliferation assay (CellTiter Glo), Donor 3 GMA T-cell lines, incl. reactivity to non-canonical GA peptides; type: cell-based, human; conditions: for Non-Canonical Peptide Non-Reactivity: proliferation <2 times no antigen control; for Non-Canonical Peptide Reactivity: at least one proliferation value >=2 times no antigen control
[2] = tested on: Donor 3 COP T-Cell Lines; assay: ATP proliferation assay (CellTiter Glo), Donor 3 COP T-cell lines, incl. reactivity to non-canonical GA peptides; type: cell-based, human; conditions: for Non-Canonical Peptide Reactivity: at least one proliferation value >=2 times no antigen control

With poly (Lys-Tyr; 1:1) [LT 11] as the substance, how does the “proliferation response to non-canonical GA peptides” value ([1]; 165-05G (so in the source), minimum 55 days in culture, 0, 1, 3, 10 μg/mL) read?
The value was “responded”.

What about the “Non-Canonical Peptide Non-Reactivity” value ([1]; 165-B5G) of the same substance?
Its value is “LT 11”.

What about the “Non-Canonical Peptide Reactivity” value ([1]; 165-C5G) of the same substance?
The value was “LT 11”.

What about the “Non-Canonical Peptide Non-Reactivity” value ([1]; 165-E7G) of the same substance?
The value was “LT 11”.

And the “Non-Canonical Peptide Non-Reactivity” value ([1]; 165-E9G)?
The value was “LT 11”.

What about the “Non-Canonical Peptide Non-Reactivity” value ([1]; 165-F5G) of the same substance?
The value was “LT 11”.

What about the “Non-Canonical Peptide Reactivity” value ([1]; 165-F10G) of the same substance?
The value was “LT 11”.

What about the “Non-Canonical Peptide Non-Reactivity” value ([1]; 165-H11G) of the same substance?
The value was “LT 11”.

And the “Reactive T-Cell Line” value ([1]; Donor 3 GMA lines, at least a 50% increase in proliferation relative to a control after stimulation with the non-canonical GA peptide)?
The value was 165-C5G (Donor 3) and 165-F10G (Donor 3).

What about the “Nonreactive T-Cell Line” value ([1]; Donor 3 GMA lines, stimulation with the non-canonical GA peptide) of the same substance?
Its value is 165-B5G (Donor 3) and 165-F5G (Donor 3) and 165-E7G (Donor 3) and 165-E9G (Donor 3) and 165-H11G (Donor 3).

What about the “Proliferation (luminescent ATP assay), Mean” value (from here on “Proliferation … Mean”) ([1]; T-cell line 165-B5G, 1.25 μg/mL antigen, Day 55 of culturing, No Antigen Value 846) of the same substance?
The value was 1497 RLU.

And the “Proliferation … Mean” value ([1]; T-cell line 165-B5G, 2.5 μg/mL antigen, Day 55 of culturing, No Antigen Value 846)?
The value was 1724 RLU.

What about the “Proliferation … Mean” value ([1]; T-cell line 165-B5G, 5 μg/mL antigen, Day 55 of culturing, No Antigen Value 846) of the same substance?
Its value is 1666 RLU.

And the “Proliferation … Mean” value ([1]; T-cell line 165-B5G, 10 μg/mL antigen, Day 55 of culturing, No Antigen Value 846)?
Its value is 2705 RLU.

What about the “Proliferation … Mean” value ([1]; T-cell line 165-C5G, 1.25 μg/mL antigen, autologous B-LCL) of the same substance?
The value was 527 RLU.

What about the “Proliferation … Mean” value ([1]; T-cell line 165-C5G, 2.5 μg/mL antigen, autologous B-LCL) of the same substance?
Its value is 680 RLU.

What about the “Proliferation … Mean” value ([1]; T-cell line 165-C5G, 5 μg/mL antigen, autologous B-LCL) of the same substance?
The value was 3010 RLU.

And the “Proliferation … Mean” value ([1]; T-cell line 165-C5G, 10 μg/mL antigen, autologous B-LCL)?
The value was 34438 RLU.

What about the “Proliferation … Mean” value ([1]; T-cell line 165-E7G, 1.25 μg/mL antigen, autologous B-LCL, Day 55) of the same substance?
Its value is 2785 RLU.

And the “Proliferation … Mean” value ([1]; T-cell line 165-E7G, 2.5 μg/mL antigen, autologous B-LCL, Day 55)?
Its value is 5270 RLU.

And the “Proliferation … Mean” value ([1]; T-cell line 165-E7G, 5 μg/mL antigen, autologous B-LCL, Day 55)?
The value was 3559 RLU.

What about the “Proliferation … Mean” value ([1]; T-cell line 165-E7G, 10 μg/mL antigen, autologous B-LCL, Day 55) of the same substance?
The value was 1983 RLU.

What about the “Proliferation … Mean” value ([1]; T-cell line 165-E9G, 1.25 μg/mL antigen, autologous B-LCL) of the same substance?
Its value is 132 RLU.

What about the “Proliferation … Mean” value ([1]; T-cell line 165-E9G, 2.5 μg/mL antigen, autologous B-LCL) of the same substance?
The value was 129 RLU.

And the “Proliferation … Mean” value ([1]; T-cell line 165-E9G, 5 μg/mL antigen, autologous B-LCL)?
Its value is 89 RLU.

And the “Proliferation … Mean” value ([1]; T-cell line 165-E9G, 10 μg/mL antigen, autologous B-LCL)?
The value was 91 RLU.

And the “Proliferation … Mean” value ([1]; T-cell line 165-F5G, 1.25 μg/mL antigen, autologous B-LCL)?
Its value is 126 RLU.

What about the “Proliferation … Mean” value ([1]; T-cell line 165-F5G, 2.5 μg/mL antigen, autologous B-LCL) of the same substance?
Its value is 113 RLU.

And the “Proliferation … Mean” value ([1]; T-cell line 165-F5G, 5 μg/mL antigen, autologous B-LCL)?
Its value is 136 RLU.

And the “Proliferation … Mean” value ([1]; T-cell line 165-F5G, 10 μg/mL antigen, autologous B-LCL)?
Its value is 129 RLU.

What about the “Proliferation … Mean” value ([1]; T-cell line 165-F10G, 1.25 μg/mL antigen, autologous B-LCL) of the same substance?
Its value is 1145 RLU.

And the “Proliferation … Mean” value ([1]; T-cell line 165-F10G, 2.5 μg/mL antigen, autologous B-LCL)?
Its value is 1270 RLU.

What about the “Proliferation … Mean” value ([1]; T-cell line 165-F10G, 5 μg/mL antigen, autologous B-LCL) of the same substance?
Its value is 1552 RLU.

What about the “Proliferation … Mean” value ([1]; T-cell line 165-F10G, 10 μg/mL antigen, autologous B-LCL) of the same substance?
The value was 8012 RLU.

What about the “Proliferation … Mean” value ([1]; T-cell line 165-H11G, 1.25 μg/mL antigen, autologous B-LCL) of the same substance?
Its value is 15 RLU.

And the “Proliferation … Mean” value ([1]; T-cell line 165-H11G, 2.5 μg/mL antigen, autologous B-LCL)?
The value was 326 RLU.

What about the “Proliferation … Mean” value ([1]; T-cell line 165-H11G, 5 μg/mL antigen, autologous B-LCL) of the same substance?
Its value is 357 RLU.

What about the “Proliferation … Mean” value ([1]; T-cell line 165-H11G, 10 μg/mL antigen, autologous B-LCL) of the same substance?
Its value is 178 RLU.

And the “Non-Canonical Peptide Reactivity” value ([2]; 165-C4C)?
Its value is “LT 11”.

What about the “Non-Canonical Peptide Reactivity” value ([2]; 165-C7C) of the same substance?
Its value is “LT 11”.

And the “proliferation response to non-canonical GA peptides” value ([2]; 165-F3C (Day 77) and 165-C4C (Day 66), 0, 1, 3, 10 μg/mL)?
Its value is “responded well”.

And the “Non-Canonical Peptide Reactivity” value ([2]; 165-F3C)?
Its value is “LT 11”.

What about the “Non-Canonical Peptide Non-Reactivity” value ([2]; 165-F6C, proliferation <2 times no antigen control) of the same substance?
The value was “LT 11”.

And the “Reactive T-Cell Line” value ([2]; Donor 3 COP lines, at least a 50% increase in proliferation relative to a control after stimulation with the non-canonical GA peptide)?
The value was 165-C4C (Donor 3) and 165-C7C (Donor 3) and 165-F3C (Donor 3).

What about the “Nonreactive T-Cell Line” value ([2]; Donor 3 COP lines, stimulation with the non-canonical GA peptide) of the same substance?
The value was 165-F6C (Donor 3).

What about the “Proliferation … Mean” value ([2]; T-cell line 165-C4C, 1 μg/mL antigen, Day 66 of culture, 0 μg/mL 1881) of the same substance?
The value was 2430.

And the “Proliferation … Mean” value ([2]; T-cell line 165-C4C, 3 μg/mL antigen, Day 66 of culture, 0 μg/mL 1881)?
Its value is 2701.

And the “Proliferation … Mean” value ([2]; T-cell line 165-C4C, 10 μg/mL antigen, Day 66 of culture, 0 μg/mL 1881)?
Its value is 4129.

And the “Proliferation … Mean” value ([2]; T-cell line 165-C7C, 1.25 μg/mL antigen, autologous B-LCL)?
The value was 418 RLU.

What about the “Proliferation … Mean” value ([2]; T-cell line 165-C7C, 2.5 μg/mL antigen, autologous B-LCL) of the same substance?
The value was 305 RLU.

What about the “Proliferation … Mean” value ([2]; T-cell line 165-C7C, 5 μg/mL antigen, autologous B-LCL) of the same substance?
Its value is 244 RLU.

What about the “Proliferation … Mean” value ([2]; T-cell line 165-C7C, 10 μg/mL antigen, autologous B-LCL) of the same substance?
Its value is 119 RLU.

What about the “Proliferation … Mean” value ([2]; T-cell line 165-F3C, 1 μg/mL antigen, Day 77 of culture, 0 μg/mL 1563) of the same substance?
Its value is 2144.

And the “Proliferation … Mean” value ([2]; T-cell line 165-F3C, 3 μg/mL antigen, Day 77 of culture, 0 μg/mL 1563)?
The value was 2605.

What about the “Proliferation … Mean” value ([2]; T-cell line 165-F3C, 10 μg/mL antigen, Day 77 of culture, 0 μg/mL 1563) of the same substance?
The value was 3608.

And the “Proliferation … Mean” value ([2]; T-cell line 165-F6C, 1.25 μg/mL antigen, Day 76 of culture, No Antigen value 517)?
The value was 431.

And the “Proliferation … Mean” value ([2]; T-cell line 165-F6C, 2.5 μg/mL antigen, Day 76 of culture, No Antigen value 517)?
Its value is 518.

What about the “Proliferation … Mean” value ([2]; T-cell line 165-F6C, 5 μg/mL antigen, Day 76 of culture, No Antigen value 517) of the same substance?
The value was 490.

And the “Proliferation … Mean” value ([2]; T-cell line 165-F6C, 10 μg/mL antigen, Day 76 of culture, No Antigen value 517)?
Its value is 736.
